Data published in patent US6979687B1, “Theophylline-based soluble guanylyl cyclase activators KMUP-1 analogues enhanced cyclic GMP and K+ channel activities on rabbit corpus cavernosum smooth muscle and intercavernous pressure activities” (Cho-Jan Liang, priority 2002, dated 2005).
Like-named read-outs stand apart in the source and are kept apart here.

Legend:
[1] = system: rabbit corpus cavernosum smooth muscle; assay: Rabbit corpus cavernosum smooth muscle relaxation, organ bath; format: cell-based
Description: (§1) Disruption of endothelium The endothelium lining the lacunar spaces of rabbit corpus cavernosum was disrupted and/or removed by detergent treatment using a modification of a protocol for blood vessels, described elsewhere (kim N. et al., J. Clin. Invest., 88, 112–118, 1991). The intact, isolated penis was placed in a tray containing chilled physiological salt solution (PSS). A 21-guage minicatheter was inserted into each corporal body at the proximal end of the penis. A third minicatheter was inserted into the distal end, below the glans penis, where the right and left corpora communicate. While the distal and one proximal minicatheter were clamped, 3 ml of CHAPS (wt vol.^−) in saline was infused into the remaining proximal catheter. After a short interval (˜20 s), the clamped minicatheters were opened and the preparation was washed by infusion of saline. The corpora cavernosa were then removed and tested for endothelial integrity.
Tissue procurement and organ bath experiments Male rabbits were killed with pentobarbital and their penises excised rapidly and cut longitudinally into equal strips to give 3–6 segments. These segments were incubated in Kerbs-bicarbontate solution (NaCl, 118 mM; NaHCO3, 25 mM; KCl, 4.7 mM; KH2PO4, 1.2 mM; MgSO4, 1.2 mM; glucose, 11 mM; CaCl2, 2.5 mM; pH 7.3–7.4) maintained at 37° C. and aerated with 95% O2 and 5% CO2. Isometric tension was recorded with a force displacement transducer (UGO BASILE, Model 7004, Italy). Rabbit corpus cavernosum smooth muscles were stretched to a resting tension of 2 g and then contracted with phenylephrine (PE, 10 μM). Tissues were also treated with guanethidine (10 μM) to block contractions caused by noradrenaline, released from adrenergic neuron, and treated with atropine (1 μM) to prevent muscarinic effects caused by acetylcholine. When the stable constriction to phenylephrine was reached, concentration-response curves to KMUP-1 (0.001–10 μM) were constructed. Data were expressed as a percentage of the maximum contractile response to phenylephrine. To examine the possible action mechanisms of KMUP-1, the rabbit corpus cavernosum smooth muscles were pretreated with sGC (soluble guanylyl cyclase) inhibitors ODQ (1 μM), a NOS (nitric oxide synthase) inhibitor L-NAME (100 μM), a K^+ channel blocker Tetraethylammonium (TEA, 10 mM), a KATP channel blocker glibenclamide (1 μM), a voltage-dependent K^+ channel blocker 4-AP (100 μM) and Ca^2+-dpendent K^+ channel blockers apamin (1 μM) and charybdotoxin (0.1 μM) for 30 min prior to the addition of KMUP-1. To observe whether the rabbits corpus cavernosum smooth muscle relaxation of KMUP-1 are affected by a nonselective PDE (phosphodiesterase) inhibitor, we investigated the action of KMUP-1 in the presence of IBMX (0.5 μM). In another experiment, rabbit corpus cavernosum smooth muscles were preconstricted with 60 mM KCl. The KCl solution was prepared by substituting NaCl with KCl (60 mM) in an equimolar amount.
as §1, with “(kim” for “(kim N.”, “al.,” for “al., J. Clin. Invest., 88, 112–118,”, “vol.^−1)” for “vol.^−)”, “integrity. […]” for “integrity.”

[2] = system: PDE (phosphodiesterase) in human platelets; assay: Phosphodiesterase assay, soluble PDE from human platelets, cyclic GMP substrate; format: biochemical; details: at 100 μM, n=3
Description: Phosphodiesterase assay. Human platelets were isolated from whole blood using 50 mM Tris-HCl containg 5 mM MgCl2 (pH 7.5) and centrifuged to prepare platelet rich plasma. Washed human platelets were resuspended in 50 mM Tris-HCl containg 5 mM MgCl2 (pH 7.5). Platelets were then disrupted by sonicatio, and soluble PDE preparation was obtained by ultracentrifugation 105000 g for 60 min (4° C). […] After 20 min at 37° C., the samples were heated to 100° C. for 2 min. Ophiophagus Hannah snake venom (10 mg/ml, 10 μl) was then added and incubated at 37 C. for 10 min to convert the 5-GMP to the unchanged nucleosides, guanosine. An ion-exchange resin (200 μl) was added to bind all uncoverted cyclic GMP. After centrifuging, the supernatant was removed for determination in a liquid scintillation counter.

[3] = system: rabbit corpus cavernosum smooth muscle cells; assay: Intracellular cGMP content in rabbit corpus cavernosum smooth muscle cells; format: cell-based; details: for cGMP levels: 0.01–10 μM; for cGMP levels / guanosine 3′,5′-cyclic monophosphate levels: in the presence of IBMX (100 μM); for guanosine 3′,5′-cyclic monophosphate levels: 0.1, 1.0, 10, 100 μM
Description: (§2) Culture of rabbit corpus cavernosum smooth muscle cells Rabbit corpus cavernosum smooth muscles were obtained as sterile surgical specimens, the tissue was washed and cut into 1 to 2 mm pieces and placed into culture dishes with Dulbecco's modified Eagle's medium (DMEM) containing 20% fetal bovine serum (FBS), penicillin (100 U ml^−1), streptomycin (100 U ml^−1) and 2 mM Glutamine. After explants attached to the culture dish, usually 1 to 2 days, DMEM (Dulbecco's modified Eagle's medium) supplement with 10% FBS, penicillin, streptomycin, and glutamine were added. Smooth muscle cells migrated out from the explants in 3–5 days. At this time, the explants were removed, and cells were allowed to achieve confluence. Cells were detached using 0.05% trypsin, 0.02% EDTA at 37° C. for 5 minutes to establish secondary cultures. Cultures were maintained for no more than 4 passages. Cellular homogeneity was further confirmed by the presence of smooth muscle specific α-myosin and α-actin immunoreactivity. Indirect immunofluorescence staining for a variety of antigens was carried out by first plating the cells on chamber slides fixing the cells in 3.7% formaldehyde-phosphate buffered saline for 10 minutes and permeabilizing the cells with phosphate buffered saline 0.1% Triton X-100. Cells were then stained with either a mouse monoclonal antibody directed against the amino terminal 10 amino acids of α-smooth muscle actin and α-myosin (Moreland R. B. et al., J Urol., 153, 826–834, 1995).
Measurement of intracellular guanosine 3′,5′-cyclic monophosphate content Intracellular cGMP concentrations in rabbit corpus cavernosum smooth muscle cells were assayed as our previously described (Wu et al., 2001). In brief, cells were finally grown in 24-well plates (10^5 cells well^−1). […] Incubation was terminated by the addition of 6% trichloroacetic acid (TCA). Cell suspensions were sonicated and then centrifuged at 2500 g for 15 min at 4° C. Then, the supernatants were lyophilized and cGMP of each sample was determined using a commercially available radioimmunoassay kits (Amersham Pharmacia Biotech, Buckinghamshire, England).
as §2, with “Rabbit CCSMs (corpus” for “Rabbit corpus”, “smooth muscles)” for “smooth muscles”, “DMEM” for “DMEM (Dulbecco's modified Eagle's medium)”, “(Moreland” for “(Moreland R. B.”, “al.,” for “al., J Urol., 153, 826–834,”
Measurement of intracellular cyclic GMP content Intracellular cGMP concentrations in rabbit CCSM cells were assayed as our previously described (Wu et al., 2001). In brief, cells were finally grown in 24-well plates (10^5 cells well^−1). […] Incubation was terminated by the addition of 6% trichloroacetic acid (TCA). Cell suspensions were sonicated and then centrifuged at 2500 g for 15 min at 4° C. […]

[4] = Learning and memory behavioral tasks (Morris water maze, passive inhibitory and active avoidance, rotorod); format: in vivo
Description: Long-term potentiation (LTP) is a potential cellular mechanism underlying learning and memory. Nitric oxide (NO) acts as a retrograde messenger and its downstream effectors are also involved in the modulation of synaptic plasticity in various brain regions such as hippocampus, amygdala, cerebellum, brain stem, cortex etc. Although nitric oxide (NO) is thought to affect synaptic potentiation in various brain regions, the NO-cGMP-PKG pathway involved in memory acquisition in living animals is still unclear. […]. The stimulating parameter which induced long-lasting depression was shifted to a lower frequency by theophylline-based derivative. Furthermore, simultaneous perfusion of theophylline-based derivatives with different concentration of NO donor induced LTP or LTD when the hippocampal slices were stimulated at a frequency as low as 0.02 Hz. The effects of theophylline-based derivative on the behavioral tasks in the following anomal models were examined: Morris water maze, passive inhibitory and active avoidance tests, and rotorod test. […] KMUP-1 injected (1 mg/kg,i.p.) 10 min before the training shortened the escape latency in water maze, increased the retention scores in passive inhibitory avoidance task, decreased the retention time in active avoidance test, and enhanced the motor coorfination in the examination of rotorod. […] YC-1 thus enhanced LTP, learning and memory in an NO-cGMP-PKG-dependent pathway and is a promising drug to enhance learning and memory in human being.

[5] = system: intracavernous pressure of rabbits; details: for DT, duration of tumescence / ΔICP, peak increased intracavernous pressure: n=8; for intracavernous pressure, dose dependence: 0.2, 0.4, 0.6 mg kg−1 intracavernous
Description: Measurement of intracavernous pressure Male rabbits were used for the investigation. After sedation with an intramuscular injection of ketamine (10 mg kg^−1), the rabbits were anaesthetized with intraperitoneal pentobarbital (30 mg kg^−1) and maintained with 10 mg kg^−1 if needed. The animals breathed spontaneously. The rabbits were then placed in the supine position, and the body temperature was maintained at 37° C. The femoral artery was cannulated for continuous monitoring of systemic arterial pressure (SAP) and heart rate (HR) via a pressure transducer (Spectramed, Model P10EZ, U.S.A.). Under sterile conditions, the skin overlying the penis was incised and the corpora cavernosum was exposed at the root of the penis. A 25-gunge needle was inserted into the corpus cavernosum smooth muscles for pressure recording. The needle was connected to a three-way stopcock, thus permitting the intracavernous injection of the drugs. The tube was filled with heparinized saline (50 IU 2 h^−1) to prevent clotting.
Normal saline in increasing volumes (0.05, 0.1, 0.2 ml) was injected in four rabbits as a control group. […] In order to minimize the effect of the previous drug, the cavernous body was flushed with 0.2 ml normal saline before each injection and the time interval between each injection was at least 1.5 h.
Measurement of intracavernous pressure Male rabbits were used for the investigation. After sedation with an intramuscular injection of ketamine (10 mg kg^−1), the rabbits were anaesthetized with intraperitoneal pentobarbital (30 mg kg^−1) and maintained with 10 mg kg^−1 if needed. The animals breathed spontaneously. The rabbits were then placed in the supine position, and the body temperature was maintained at 37° C. The femoral artery was cannulated for continuous monitoring of systemic arterial pressure (SAP) and heart rate (HR) via a pressure transducer (Spectramed, Model P10EZ, U.S.A.). Under sterile conditions, the skin overlying the penis was incised and the corpora cavernosum was exposed at the root of the penis. A 25-gunge needle was inserted into the CCSMs for pressure recording. The needle was connected to a three-way stopcock, thus permitting the intracavernous injection of the drugs. The tube was filled with heparinized saline (50 IU 2 h^−1) to prevent clotting.

[6] = system: rabbit aortic rings; assay: Relaxation of phenylephrine-precontracted rabbit aortic rings; format: cell-based
[7] = system: rabbit aorta smooth muscle cells; assay: cGMP levels in rabbit aorta smooth muscle cells; format: cell-based; details: for guanosine 3′,5′-cyclic monophosphate levels: 0.1, 1.0, 10, 100 μM, in the presence of IBMX (100 μM)
[8] = in the presence of IBMX (0.5 μM)
[9] = 1 mg/kg i.p. 10 min before the training
[10] = 0.2 mg/kg intracavernous injection
[11] = 0.4 mg/kg intracavernous injection
[12] = 0.6 mg/kg intracavernous injection
[13] = pretreatments with methylene blue (100 μM) and ODQ (10 μM)

Cn1c(=O)c2c(ncn2CCN2CCN(c3ccccc3Cl)CC2)n(C)c1=O [KMUP-1, 7-[2-[4-(2-chlorophenyl)piperazinyl]-ethyl]-1,3-dimethylxanthine]
relaxant activities in rabbit CCSMs [1]: concentration-dependent relaxant activities
relaxation in endothelium-denuded (EC−) corpus cavernosum smooth muscle ([1]; 0.001–10 μM, endothelium-denuded): concentration-dependent relaxations
−log EC50 of relaxation ([1]; after K+ channel blocker TEA (10 mM)): 5.37±0.05
−log EC50 of relaxation ([1]; after KATP channel blocker glibenclamide (1 μM)): 6.57±0.15
−log EC50 of relaxation ([1]; after NOS inhibitor L-NAME (100 μM)): 6.51±0.08
−log EC50 of relaxation ([1]; after apamin (1 μM)): 5.85±0.11
−log EC50 of relaxation ([1]; after charybdotoxin (0.1 μM)): 5.63±0.09
−log EC50 of relaxation ([1]; after sGC inhibitor ODQ (1 μM)): 6.79±0.12
−log EC50 of relaxation ([1]; after voltage-dependent K+ channel blocker 4-AP (100 μM)): 5.83±0.17
relaxation of corpus cavernosum smooth muscle strips ([1]; at 10 μM): completely relaxed
effect of combination with IBMX on CCSMs relaxations [1]: additive effect
−log EC50 of relaxation ([1]; endothelium-intact (EC+), phenylephrine (10 μM)-precontracted, no blocker): 7.19±0.09
relaxation in the presence of high K+ ([1]; high K+ (60 mM), 0.001–10 μM): great reduction of relaxation
−log EC50 of relaxation [1, 8]: 8.65±0.14
inhibition of PDE activity [2]: 29±3.1%
cGMP levels [3]: increased the cGMP levels
cGMP levels after ODQ pretreatment ([3]; pretreatment with ODQ (10 μM)): inhibited
escape latency in water maze [4, 9]: shortened
motor coordination in rotorod [4, 9]: enhanced
retention scores in passive inhibitory avoidance task [4, 9]: increased
retention time in active avoidance test [4, 9]: decreased
retention of passive inhibitory avoidance ([4]; given 30 min after foot-shock): did not affect
DT, duration of tumescence [5, 10]: 15 ± 2.24 min
ΔICP, peak increased intracavernous pressure [5, 10]: 30 ± 5.25 mmHg
DT, duration of tumescence [5, 11]: 27 ± 2.05 min
ΔICP, peak increased intracavernous pressure [5, 11]: 55 ± 6.21 mmHg
DT, duration of tumescence [5, 12]: 35 ± 3.45 min
ΔICP, peak increased intracavernous pressure [5, 12]: 67 ± 12.32 mmHg
intracavernous pressure, dose dependence [5]: dose-dependent elevations
HR (heart rate) ([5]; rabbit, in vivo): unchanged
SAP (systemic arterial pressure) ([5]; rabbit, in vivo): unchanged

COc1ccccc1N1CCN(CCn2cnc3c2c(=O)n(C)c(=O)n3C)CC1 [KMUP-2, 7-[2-[4-(2-methoxyphenyl)piperazinyl]-ethyl]-1,3-dimethylxanthine]
relaxant activities in rabbit CCSMs [1]: concentration-dependent relaxant activities
effect of combination with IBMX on CCSMs relaxations [1]: additive effect
−log EC50 of relaxation ([1]; compound alone, IBMX additive experiment (FIG. 6)): 7.58±0.02
−log EC50 of relaxation [1, 8]: 8.37±0.03
−log EC50 of relaxation in aortic rings ([6]; KMUP-2 (0.01, 0.05, 0.1 μM) alone): 5.69±0.02
−log EC50 of relaxation in aortic rings [6, 8]: 6.61±0.12
inhibition of PDE activity [2]: 21±2.1%
guanosine 3′,5′-cyclic monophosphate levels [3]: significantly increased
cGMP levels after methylene blue and ODQ pretreatments [3, 13]: significantly inhibited
guanosine 3′,5′-cyclic monophosphate levels [7]: significantly increased
cGMP levels after methylene blue and ODQ pretreatments [7, 13]: significantly inhibited

CCCc1nn(C)c2c(=O)[nH]c(-c3cc(S(=O)(=O)N4CCN(C)CC4)ccc3OCC)nc12 [sildenafil, reference compound]
cGMP levels [3]: increased the cGMP levels
guanosine 3′,5′-cyclic monophosphate levels [3]: significant elevation
guanosine 3′,5′-cyclic monophosphate levels [7]: significant elevation
DT, duration of tumescence [5, 10]: 19 ± 3.32 min
ΔICP, peak increased intracavernous pressure [5, 10]: 28 ± 3.21 mmHg
DT, duration of tumescence [5, 11]: 24 ± 3.45 min
ΔICP, peak increased intracavernous pressure [5, 11]: 32 ± 4.05 mmHg
DT, duration of tumescence [5, 12]: 28 ± 4.59 min
ΔICP, peak increased intracavernous pressure [5, 12]: 40 ± 11.05 mmHg
intracavernous pressure, dose dependence [5]: dose-dependent elevations
